Assays:
dopamine uptake sites = assay: Protection in a model of Parkinson's disease: dopaminergic neuron loss in mice poisoned with MPTP, striatal dopamine uptake sites quantified by GBR12935 binding; format: in vivo; details: MPTP-poisoned C57BL6 mice, striatum, gavage twice a day for 17 days, MPTP only = 58%, p<0.01 vs MPTP only
Description: The effects of the 4-cyclopropylmethoxy-N-(3,5-dichloro-1-oxidopyridin-4-yl)-5-(methoxy)pyridine-2-carboxamide used according to the invention were evaluated in mice using a model of dopaminergic neuron loss.
Protection in a Model of Parkinson's disease (Dopaminergic Neuron Loss in Mice Poisoned with MPTP (1-methyl-4-phenyl-1,2,3,6-tetrahydropyridine):
C57BL6 mice are given 4 intraperitoneal injections of 20 mg/kg of MPTP, each 2 hours apart. The 4-cyclopropylmethoxy-N-(3,5-dichloro-1-oxidopyridin-4-yl)-5-(methoxy)pyridine-2-carboxamide in solution in the carrier (methylcellulose (MC) (0.6%)+Tween-80 (0.5%)) is administered by gavage between the 2nd and 3rd injection of MPTP and just after the final injection of MPTP, and then twice a day for 17 days at the total daily doses of 0.015 and 0.050 mg/kg. Twenty-four hours after the final treatment, the striatum is removed and the dopamine uptake sites are quantified using a GBR12935 (1-[2-(diphenylmethoxy)ethyl]-4-(3-phenylpropyl)piperazine) binding method.

ferrets = assay: Evaluation of the emetic effects in ferrets after oral gavage; format: in vivo; details: observed up to 6 hours
Description: The emetic capacity of 4-cyclopropylmethoxy-N-(3,5-dichloro-1-oxidopyridin-4-yl)-5-(methoxy)pyridine-2-carboxamide was evaluated in ferrets. Two groups of ferrets were used, the first being given the carrier (PEG200) and the second being given the 4-cyclopropylmethoxy-N-(3,5-dichloro-1-oxidopyridin-4-yl)-5-(methoxy)pyridine-2-carboxamide in solution in the carrier (PEG 200), by oral gavage. The animals were observed continually for 2 hours following administration, and then every hour until 6 hours after administration. The clinical signs (in particular, retching and vomiting) were noted.
The emetic capacity of (R)-(−)-rolipram was evaluated in the ferrets. Two groups of ferrets were used, the first being given the carrier (PEG200) and the second being given the […] in solution in the carrier (PEG 200), by oral gavage, at doses of 0.05 mg/kg and of 0.1 mg/kg. The animals were observed continually for the 2 hours following administration, and then once an hour up to 6 hours after the administration. The clinical signs were noted.

[1] = cited from earlier work
[2] = oral gavage in PEG200, 0.1 mg/kg

Structure (SMILES)	density of the dopamine uptake sites, % of the level observed in the normal animals (dopamine uptake sites; total daily dose 0.015 mg/kg/d) [%]	density of the dopamine uptake sites, % of the level observed in the normal animals (dopamine uptake sites; total daily dose 0.050 mg/kg/d) [%]	emetic effects (retching and vomiting) (ferrets; [2])	emetic effects (retching and vomiting) (ferrets; oral gavage in PEG200, 0.05 mg/kg)	emetic effects in clinical studies [1]
COc1cnc(C(=O)Nc2c(Cl)c[n+]([O-])cc2Cl)cc1OCC1CC1 [4-cyclopropylmethoxy-N-(3,5-dichloro-1-oxidopyridin-4-yl)-5-(methoxy)pyridine-2-carboxamide]	82	85	neither retching nor vomiting		
COc1ccc([C@@H]2CNC(=O)C2)cc1OC1CCCC1 [(R)-(−)-rolipram, (4R)-4-[3-(cyclopentyloxy)-4-methoxyphenyl]pyrrolidine-2-one]			induce vomiting	induce vomiting	
COc1ccc(C2CNC(=O)C2)cc1OC1CCCC1 (stereo not drawn) [rolipram]					induce emetic effects

Source: patent publication US20100130554A1, “USE OF 4-CYCLOPROPYLMETHOXY-N-(3,5-DICHLORO-1-OXIDOPYRIDIN-4-YL)-5-(METHOXY)PYRIDINE-2-CARBOXAMIDE FOR THE TREATMENT OF MOTOR DISORDERS RELATED TO PARKINSON'S DISEASE” (SANOFI-AVENTIS, priority 2007, published 2010)
